Experimental data reported in ChEMBL document CHEMBL1136572, “Piperazine-based CCR5 antagonists as HIV-1 inhibitors. III: synthesis, antiviral and pharmacokinetic profiles of symmetrical heteroaryl carboxamides” (Bioorg Med Chem Lett, 2003).

How the values were obtained:
[1] = tested on: U-87 MG; test: Tested for inhibiting HIV (ADA) entry into cells; format: functional, cell-based, U-87MG ATCC; conditions: Homo sapiens
[2] = target: T1, Muscarinic acetylcholine receptor M2 (Homo sapiens, UniProt P08172); test: Binding affinity towards muscarinic receptor M2
T1 sequence (P08172 whole entry): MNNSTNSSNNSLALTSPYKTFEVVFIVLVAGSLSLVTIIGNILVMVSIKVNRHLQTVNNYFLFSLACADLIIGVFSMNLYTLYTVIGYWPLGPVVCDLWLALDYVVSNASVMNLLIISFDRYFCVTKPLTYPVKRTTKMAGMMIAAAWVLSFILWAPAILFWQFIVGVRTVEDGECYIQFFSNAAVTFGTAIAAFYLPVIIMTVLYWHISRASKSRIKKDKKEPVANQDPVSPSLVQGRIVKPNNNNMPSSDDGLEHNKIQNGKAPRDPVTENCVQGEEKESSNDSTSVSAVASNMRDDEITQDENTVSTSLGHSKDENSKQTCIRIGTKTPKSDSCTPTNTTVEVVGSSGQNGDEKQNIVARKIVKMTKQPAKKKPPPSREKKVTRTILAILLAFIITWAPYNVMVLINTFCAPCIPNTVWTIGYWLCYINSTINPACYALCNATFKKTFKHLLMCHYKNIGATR

[3] = target: C-C chemokine receptor type 5 (Homo sapiens, UniProt P51681); test: Ability to inhibit [125I]-labeled RANTES binding to the CCR5 receptor expressed in membrane preparations from CHO cells; format: cell membranes
Sequence of C-C chemokine receptor type 5 (P51681 whole entry): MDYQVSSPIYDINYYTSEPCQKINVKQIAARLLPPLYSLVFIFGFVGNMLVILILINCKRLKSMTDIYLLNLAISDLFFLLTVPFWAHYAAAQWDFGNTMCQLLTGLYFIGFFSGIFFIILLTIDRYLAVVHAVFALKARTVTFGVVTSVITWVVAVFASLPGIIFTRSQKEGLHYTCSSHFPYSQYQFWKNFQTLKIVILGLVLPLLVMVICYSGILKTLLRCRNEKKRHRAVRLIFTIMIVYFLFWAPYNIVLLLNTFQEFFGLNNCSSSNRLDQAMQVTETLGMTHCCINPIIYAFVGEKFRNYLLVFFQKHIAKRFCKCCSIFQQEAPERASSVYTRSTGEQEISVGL

[4] = tested on: BaF3; test: Inhibition of 0.1 nM of MIP-1beta induced migration of recombinant mouse pro-B cell line BA/F3 expressing human CCR5; format: functional, cell-based
[5] = tested on: U-87 MG; test: Compound was tested for inhibiting HIV (ADA) entry into cells; Range is 0.2-2.0 nM; format: functional, cell-based, U-87MG ATCC; conditions: Homo sapiens
[6] = Compound was tested for inhibition of HIV isolate YU-2 (hz) in peripheral blood mononuclear cells (PBMC); format: functional
[7] = Compound was tested for inhibition of HIV isolate BCF01 in peripheral blood mononuclear cells (PBMC); format: functional
[8] = Compound was tested for inhibition of HIV isolate ASM 108 (wt) in peripheral blood mononuclear cells (PBMC); format: functional
[9] = Cmax value evaluated in monkey; format: ADME, organism-based; conditions: cercopithecidae, in vivo
[10] = Compound was tested for inhibition of HIV isolate YU-2 (wt) in peripheral blood mononuclear cells (PBMC); format: functional
[11] = Compound was tested for inhibition of HIV isolate JV 1083 in peripheral blood mononuclear cells (PBMC); format: functional
[12] = Cmax value evaluated in rat; format: ADME, organism-based; conditions: in vivo
[13] = Compound was tested for inhibition of HIV isolate ASM 108 (hz) in peripheral blood mononuclear cells (PBMC); format: functional
[14] = Ratio of AUCbrain to AUCplasma; format: ADME, organism-based; conditions: rat, brain and plasma
[15] = Oral bioavailability evaluated in monkey; format: ADME, organism-based; conditions: cercopithecidae, in vivo
[16] = Compound was tested for inhibition of HIV isolate 301657 (wt) in peripheral blood mononuclear cells (PBMC); format: functional
[17] = Compound was tested for inhibition of HIV isolate bal (hz) in peripheral blood mononuclear cells (PBMC); format: functional
[18] = Compound was tested for inhibition of HIV isolate 301657 (hz) in peripheral blood mononuclear cells (PBMC); format: functional
[19] = Compound was tested for inhibition of HIV isolate US-1 in peripheral blood mononuclear cells (PBMC); format: functional
[20] = target: T1, Muscarinic acetylcholine receptor M2; test: Inhibition of binding affinity to muscarinic receptor M2
[21] = Oral bioavailability evaluated in rat; format: ADME, organism-based; conditions: in vivo
[22] = target: T2, Muscarinic acetylcholine receptor M1 (Homo sapiens, UniProt P11229); test: Binding affinity towards muscarinic receptor M1
T2 sequence (P11229 whole entry): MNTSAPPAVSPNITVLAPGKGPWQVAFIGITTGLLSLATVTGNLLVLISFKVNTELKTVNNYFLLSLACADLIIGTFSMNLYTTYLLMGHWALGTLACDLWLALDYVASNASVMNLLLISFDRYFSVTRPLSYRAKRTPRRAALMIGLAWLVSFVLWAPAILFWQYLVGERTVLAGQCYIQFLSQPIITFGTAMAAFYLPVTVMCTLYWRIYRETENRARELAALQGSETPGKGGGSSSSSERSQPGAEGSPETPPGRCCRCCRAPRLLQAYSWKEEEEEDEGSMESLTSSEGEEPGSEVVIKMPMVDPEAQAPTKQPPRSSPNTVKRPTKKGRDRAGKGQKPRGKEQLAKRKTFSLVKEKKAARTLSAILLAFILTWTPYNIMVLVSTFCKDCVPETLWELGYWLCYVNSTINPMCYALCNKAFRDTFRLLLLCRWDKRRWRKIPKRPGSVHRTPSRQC

[23] = tested on: U-87 MG; test: Compound was tested for inhibiting HIV (ADA) entry into U-87 cells; range is 2-20 nM; format: functional, cell-based, U-87MG ATCC; conditions: Homo sapiens
[24] = tested on: Rattus norvegicus; test: Dose required for observing CNS and GI effects in rats after peroral administration; format: functional
[25] = tested on: Rattus norvegicus; test: Dose required for observing cardiovascular effects in rats after peroral administration; format: functional, Heart

Work on `Cc1ncnc(C)c1C(=O)N1CCC(C)(N2CCN([C@@H](C)c3ccc(OC(F)(F)F)cc3)[C@@H](C)C2)CC1` yielded an IC50 [1] of 1.2 nM, a Ki [2] of 68 nM and a Ki [3] of 11 nM.
In the case of `Cc1ccnc(C)c1C(=O)N1CCC(C)(N2CCN([C@@H](C)c3ccc(C(F)(F)F)cc3)[C@@H](C)C2)CC1`, the Ki [3] is reported as 2 nM, the IC50 [4] is reported as 0.03 nM and the IC50 [5] is reported as 0.2 nM.
With `Cc1nc(C)c(C(=O)N2CCC(C)(N3CCN([C@@H](C)c4ccc(C(F)(F)F)cc4)[C@@H](C)C3)CC2)c(C)n1` the IC50 [1] was 1.45 nM, the Ki [2] was 985 nM and the Ki [3] was 10 nM.
For `Cc1nc(C(F)(F)F)nc(C)c1C(=O)N1CCC(C)(N2CCN([C@@H](C)c3ccc(C(F)(F)F)cc3)[C@@H](C)C2)CC1`, the IC50 [1] was 0.1 nM, the Ki [2] was 613 nM and the Ki [3] was 10 nM.
Compound `Cc1nc(-c2ccccc2)nc(C)c1C(=O)N1CCC(C)(N2CCN([C@@H](C)c3ccc(C(F)(F)F)cc3)[C@@H](C)C2)CC1` has an IC50 [1] of 1.8 nM, a Ki [2] of 1230 nM and a Ki [3] of 12 nM.
`Cc1cncc(C)c1C(=O)N1CCC(C)(N2CCN([C@@H](C)c3ccc(C(F)(F)F)cc3)[C@@H](C)C2)CC1` gave a Ki [2] of 1680 nM and a Ki [3] of 5.23 nM.
In the case of `COc1nc(C)c(C(=O)N2CCC(C)(N3CCN([C@@H](C)c4ccc(C(F)(F)F)cc4)[C@@H](C)C3)CC2)c(C)n1`, the Ki [2] is reported as 202 nM and the Ki [3] is reported as 11 nM.
Compound `Cc1ncnc(C)c1C(=O)N1CCC(C)(N2CCN([C@@H](C)c3ccc(C#N)cc3)[C@@H](C)C2)CC1` has an IC50 [1] of 1.8 nM, a Ki [2] of 164 nM and a Ki [3] of 20 nM.
`Cc1c[n+]([O-])cc(C)c1C(=O)N1CCC(C)(N2CCN([C@@H](C)c3ccc(C(F)(F)F)cc3)[C@@H](C)C2)CC1` showed an IC50 [1] of 0.9 nM, a Ki [2] of 255 nM and a Ki [3] of 18 nM.
`Cc1ncnc(C)c1C(=O)N1CCC(C)(N2CCN([C@@H](C)c3ccc(C(F)(F)F)cc3)[C@@H](C)C2)CC1` gave an IC50 [1] of 0.5 nM, an IC50 [6] of 1.3 nM and an IC90 ([6]; Human immunodeficiency virus 1) of 100 nM. For the same compound, the IC50 [7] was 200 nM, the IC90 ([7]; Human immunodeficiency virus 1) was over 1000 nM and the IC50 [8] was 7 nM. It also gave an IC90 ([8]; Human immunodeficiency virus 1) of 17 nM, a Cmax [9] of 340 ng/mL and an IC50 [10] of 2.3 nM. For the same compound, the IC90 ([10]; Human immunodeficiency virus 1) was 8 nM, the IC50 [11] was 166 nM and the IC90 ([11]; Human immunodeficiency virus 1) was over 300 nM. For the same compound, the Cmax [12] was 1490 ng/mL, the IC50 [13] was 0.2 nM and the IC90 ([13]; Human immunodeficiency virus 1) was 3 nM. The Ki [2] was 456 nM, the Kp [14] was 1.7 and the bioavailability [15] was 50%. For the same compound, the IC50 [16] was 3.2 nM, the IC90 ([16]; Human immunodeficiency virus 1) was 24 nM and the IC50 [17] was 6.4 nM. The IC90 ([17]; Human immunodeficiency virus 1) was 60 nM, the IC50 [18] was 26.8 nM and the IC90 ([18]; Human immunodeficiency virus 1) was over 1000 nM. The IC50 [19] was 0.7 nM, the IC90 ([19]; Human immunodeficiency virus 1) was 4 nM and the Ki [20] was 456 nM. For the same compound, the bioavailability [21] was 97%.
Compound `C[C@H]1CN(C2(C)CCN(C(=O)c3c(Cl)c[n+]([O-])cc3Cl)CC2)CCN1[C@@H](C)c1ccc(C(F)(F)F)cc1` has an IC50 [1] of 0.45 nM, a Ki [2] of 348 nM and a Ki [3] of 2.7 nM.
In the case of `Cc1nc(N)nc(C)c1C(=O)N1CCC(C)(N2CCN([C@@H](C)c3ccc(C(F)(F)F)cc3)[C@@H](C)C2)CC1`, the Ki [2] is reported as 1100 nM and the Ki [3] is reported as 38 nM.
In the case of `Cc1cc[n+]([O-])c(C)c1C(=O)N1CCC(C)(N2CCN([C@@H](C)c3ccc(C(F)(F)F)cc3)[C@@H](C)C2)CC1`, the Ki [22] is reported as 350 nM, the IC50 [23] is reported as 2 nM and the IC50 [4] is reported as 0.1 nM. The Dose [24] was 30 mg/kg and the Dose [25] was 10 mg/kg.
`Cc1ncnc(C)c1C(=O)N1CCC(C)(N2CCN([C@@H](C)c3ccc(I)cc3)[C@@H](C)C2)CC1` showed a Ki [2] of 169 nM and a Ki [3] of 11 nM.
In the case of `C[C@H]1CN(C2(C)CCN(C(=O)c3c(Cl)cncc3Cl)CC2)CCN1[C@@H](C)c1ccc(C(F)(F)F)cc1`, the IC50 [1] is reported as 0.3 nM, the Ki [2] is reported as 2030 nM and the Ki [3] is reported as 0.7 nM.
